Peptide text beside a SMILES is read from it. * marks the point of attachment. Cbz = O=C(OCc1ccccc1)*

Broadly, the IC50 is the concentration that inhibits the measured activity by half.

The subject of data set [1] is PC12 cells that express mutant G93A SOD1 as a YFP fusion protein. Put plainly: high throughput cytotoxicity protection assay. The note with it: for Activity in Protection Assay: neuroleptic agent screening; for protection of cell viability from MG132: 100 nM MG132 co-treatment. As for the experimental part:
This idea was tested by examining the sensitivity of PC12 cells to SOD1 aggregates in the presence and absence of proteasome inhibitor MG132. PC12 cells expressing no SOD1, wild type SOD1, G85R SOD1 or G93A SOD1 were grown with or without MG132 (FIG. 1). […] The ability of protein aggregates to induce cell death was examined by treating G93A SOD1-expressing cells with MG132 for 24 h, removing the MG132 by washing and assaying cell viability after another 24 h.
PC12 cells expressing G93A SOD1 were treated with 100 nM MG132 with or without co-treatment with geldanamycin or radicicol.

Data set [2] has as its system PC12 cells expressing G93A SOD1. Put plainly: sensitivity of PC12 cells to proteasome inhibitor (cell viability, calcein-AM). In kind it is cell-based. As for the experimental part: FIG. 1. Proteasome inhibition is selectively toxic to PC12 cells expressing mutant G93A SOD1. Cell survival was determined using the viability stain calcein-AM.
For data set [3], the system named is PC12 cells expressing G85R SOD1. Put plainly: mutant SOD1 direct protein aggregation assay. It is filed as cell-based. As for the experimental part: 4) Compounds could act directly on SOD1 in a manner that prevents mutant SOD1 aggregation. These possibilities were tested using an assay that directly measures protein aggregation. In addition, unlike the high throughput cytotoxicity protection assay, the protein aggregation assay is based on G85R SOD1; this broadens the scope of the screening strategy, and should eliminate compounds with highly specific activity (i.e., G93A SOD1 limited) against protein aggregation.
The identification of a positive control is a crucial step in assay development. Thus, PC12 cells expressing G85R or G93A mutant SOD1 were treated with MG132 to induce protein aggregation, and then co-treated with candidate chemical suppressors of protein aggregation.
To allow this assay to be used in a high-throughput manner, a Cellomics Arrayscan® high content microscopy system was used for screening and quantification. […] Because the most robust high content assays measure events on a per cell basis, it was necessary to select a fluorescent stain that marks whole cells to be used with a compatible stain that marks intracellular structures.

For data set [4], the system named is PC12 cells expressing G93A mutant SOD1. The data set is described as follows: MG132-induced SOD1 protein aggregation. It is filed as cell-based. As for the experimental part: (§1) In PC12 cells that express wild-type SOD1, SOD1 was diffusely localized throughout the cell (Matsumoto et al. J. Cell. Biol 2005, 171(1), 75-85). […] Therefore, these effects are likely to be due to MG132-induced proteasome inhibition, and not due to an off-target effect of MG132.
The identification of a positive control is a crucial step in assay development. Thus, PC12 cells expressing G85R or G93A mutant SOD1 were treated with MG132 to induce protein aggregation, and then co-treated with candidate chemical suppressors of protein aggregation. […] Both compounds induce heat shock transcription factor HSF-1, which in turn induces the heat shock response (FIG. 4). Treatment with radicicol reduced the proportion of cells with aggregates from 75% to 25%, a sufficient difference to allow visual scoring for compounds with efficacy equal to or greater than radicicol.

Data set [5] concerns PC12 cells expressing wild-type SOD1. The data set is described as follows: MG132-induced SOD1 protein aggregation. The note with it: cells treated with MG132. In kind it is cell-based.
Text: as §1

The subject of data set [6] is PC12 cells expressing no SOD1, wild type SOD1 and G85R SOD1. The data set is described as follows: sensitivity of PC12 cells to proteasome inhibitor (cell viability, calcein-AM). It is filed as cell-based. The note with it: Rattus norvegicus, PC-12.
A further data set can be described thus: cellular toxicity. It is filed as cell-based. The text has this:
Butaclamol is a diasteriomer and the two different isomeric forms can be physically separated.

For the molecule `CN1CCN(CCCN2c3ccccc3Sc3ccc(C(F)(F)F)cc32)CC1` [Trifluoperazine], in data set [1], the “Activity in Protection Assay” value is given as “Inactive”.

Consider `O=C(CCCN1CCC(O)(c2ccc(Cl)cc2)CC1)c1ccc(F)cc1` [Haloperidol], for which the “Activity in Protection Assay” value in data set [1] is reported as “Inactive”.

Consider `CN(C)CCCN1c2ccccc2Sc2ccc(Cl)cc21` [Chlorpromazine], for which, in data set [1], the “Activity in Protection Assay” value is given as “Inactive”.

Turning to `Cc1nc2n(c(=O)c1CCN1CCC(c3noc4cc(F)ccc34)CC1)CCCC2` [Risperidone], the “Activity in Protection Assay” value in data set [1] was “Inactive”.

In the case of `CC(C)C[C@H](NC(=O)[C@H](Cc1ccccc1)NC(=O)c1cnccn1)B(O)O` [bortezomib], in data set [2] (compared with MG132), the “sensitivity of PC12 cells to proteasome inhibition” value is “Qualitatively similar results”.

Regarding `CN1CCN(C2=Nc3cc(Cl)ccc3Nc3ccccc32)CC1` [Clozapine], the “Activity in Protection Assay” value in data set [1] was “Inactive”.

Consider `CC(C)C[C@@H](C=O)NC(=O)[C@H](CC(C)C)NC(=O)[C@H](CC(C)C)NC(=O)OCc1ccccc1` [MG132] (Cbz-Leu-Leu-Leu-aldehyde), for which the “cells containing protein aggregates” value in data set [3] (G85R SOD1 cells treated with MG132) is given as “up to 75%”. For the same molecule, the “cells with protein aggregates” value in data set [4] (G93A SOD1 cells following treatment with MG132) is on record as around 75%. Further, the “protein aggregation in wild-type SOD1 cells” value in data set [5] is “no aggregation was observed”. In addition, the IC50 in data set [6] is around 400 nM; in data set [2] (Rattus norvegicus, PC-12, read-out: IC50 (cell viability)) it was around 75 nM. In addition, the “toxicity at 24 hr” value in data set [2] (100 nM, 24 hr, any of the cell lines) is “no toxicity”. Further, the “toxicity after 48 hours” value in data set [2] (100 nM, 48 hours) was “selectively toxic to the G93A SOD1 cell line”. For the same molecule, in data set [2] (G93A SOD1 cells vs no SOD1, wild type, G85R), the “fold more sensitive than the other PC12 lines” value is “approximately 5 fold”.

As for `OCCN1CCN(CCCN2c3ccccc3Sc3ccc(Cl)cc32)CC1` [Perphenazine], in data set [1], the “Activity in Protection Assay” value is “Inactive”.

As for `O=c1[nH]c2ccccc2n1C1CCN(CCCC(c2ccc(F)cc2)c2ccc(F)cc2)CC1` [Pimozide], the “Activity in Protection Assay” value in data set [1] was “Inactive”.

As for `CN1CCN(C2=Nc3ccccc3Oc3ccc(Cl)cc32)CC1` [Loxapine], the “Activity in Protection Assay” value in data set [1] is given as “Inactive”.

Take `C[C@@H]1C[C@H]2O[C@@H]2/C=C\C=C\C(=O)Cc2c(Cl)c(O)cc(O)c2C(=O)O1` [Radicicol]: the results for the “protection of cell viability from MG132” value in data set [1] and in data set [1] (listed as radicicol) were “protects” and “increased cell viability in a dose-dependent manner”, respectively. Besides, the EC50 in data set [1] (Rattus norvegicus, PC-12, read-out: Protection ED50) was around 530 nM. The “Protection Efficacy % Viability” value in data set [1] (at the concentration given) worked out at 80%. Moreover, in data set [1] (concentration at which the % viability is given), the “Protection Efficacy Conc.” value is 0.7 µM. In data set [3], the Aggregation entry is “Moderate”. Moreover, the “proportion of cells with aggregates” value in data set [3] (G85R or G93A mutant SOD1 cells, co-treated with MG132, 75% without radicicol) was 25%. In addition, in data set [3] (G93A SOD1 or G85R SOD1 cells, MG132 co-treatment), the “suppression of MG132-induced mutant SOD1 aggregation” value is listed as “decreases mutant SOD1 aggregation”. In addition, in data set [4] (100 nM MG132 co-treatment), the “formation of protein aggregates” value is on record as “reduced formation of protein aggregates”. Also, the IC50 in the data set “cellular toxicity” was around 30000 nM.

For `CN(C)CC/C=C1/c2ccccc2Sc2ccc(Cl)cc21` [Chlorprothixene], the “Activity in Protection Assay” value in data set [1] is “Inactive”.

The values above are taken from patent US20120035203A1, “BUTACLAMOL FOR THE TREATMENT OF AMYOTROPHIC LATERAL SCLEROSIS” (CAMBRIA PHARMACEUTICALS, INC., priority 2009, published 2012).
